Common to all, as to format: nucleic-acid assay
In experiment [1] the test system is Nucleic Acid. The experiment can be described thus: Stabilization of human G-quadruplex F21T assessed as change in melting temperature at 1 uM by FRET assay.
Experiment [2] deals with Nucleic Acid. The experiment can be described thus: Stabilization of DNA duplex hairpin structure assessed as change in melting temperature at 1 uM by FRET assay.
Experiment [3] deals with Nucleic Acid. Nature of the experiment: Stabilization of human G-quadruplex F21T assessed as change in melting temperature at 5 uM by FRET assay.

This is an account of results in ChEMBL document CHEMBL2021924, “Identification of novel telomeric G-quadruplex-targeting chemical scaffolds through screening of three NCI libraries” (Bioorg Med Chem Lett, 2012).

In the case of `c1ccc2c(NCCCCCCCCNc3c4ccccc4nc4ccccc34)c3ccccc3nc2c1`, the figures for the thermal shift (ΔTm) in the experiment on Nucleic Acid [1], with Nucleic Acid [2] and with Nucleic Acid [3] were 3 °C, 0.7 °C and 38.5 °C, respectively.
The like results for `O=C(Nc1ccc(C2=NCCN2)cc1)c1ccc(C(=O)Nc2ccc(C3=NCCN3)cc2)c([N+](=O)[O-])c1` were, in that order, 13.3 °C, 3.4 °C and 33.2 °C.
On the same counts, the results for `Cc1cc2nc3ccc(N(C)C)cc3[s+]c2cc1N` are 20.3 °C, 1.8 °C and 35.1 °C.
On the same counts, the results for `Cc1ccc2c(ccc(/C=C/c3ccc(O)c4ncccc34)[n+]2C)c1` are 12.4 °C, 0 °C and 22.9 °C.
Consider `Cc1cc(N)c2cc(NC(=O)/C=C/c3ccccc3Cl)ccc2n1`, for which the ΔTm in the experiment on Nucleic Acid [1] was found to be 7.3 °C; with Nucleic Acid [2], 0.4 °C; with Nucleic Acid [3], 19.7 °C.
The like results for `COc1ccc2c(=O)oc3c(OC)cc(CCN(C)C)c4c(=O)oc1c2c34` were, in that order, 13.2 °C, 1.7 °C and 24 °C.
On the same counts, the results for `Cc1ccc(NC(=O)Nc2nc3ccccc3s2)cc1NC(=O)Nc1nc2ccccc2s1` are 22.7 °C, 0.4 °C and 26.6 °C.
The like results for `COc1ccc2c(NCCCCCCNc3c4ccccc4nc4cc(OC)ccc34)c3ccccc3nc2c1` were, in that order, 30.5 °C, 3.9 °C and 39 °C.
`O=C(Nc1ccc(C2=NCCN2)cc1)c1ccc(Cl)c(C(=O)Nc2ccc(C3=NCCN3)cc2)c1`: the ΔTm amounted to 24.2 °C in the experiment on Nucleic Acid [1], 1.4 °C in the experiment on Nucleic Acid [2] and 37.3 °C with Nucleic Acid [3].
On the same counts, the results for `O=C(Nc1ccc(C2=NCCN2)cc1)c1ccc(C(=O)Nc2ccc(C3=NCCN3)cc2)c(Cl)c1` are 8.4 °C, 1.4 °C and 20.4 °C.
For `CCN(CC)CCNc1ccc2nc(C)n3c4ccc(OC)cc4c(=O)c1c23`, the thermal shift (ΔTm) with Nucleic Acid [1] turned out to be 4.2 °C; in the experiment with Nucleic Acid [2], 2.6 °C; with Nucleic Acid [3], 15.2 °C.
The like results for `COc1cc2c3c(n(C)c(=O)c2cc1OC)-c1cc2c(cc1C3=O)OCO2` were, in that order, 8.1 °C, 0.3 °C and 18.8 °C.
The like results for `CCN1C=C/C(=C\C=C\c2cc[n+](CC)c3ccccc23)c2ccccc21` were, in that order, 11.2 °C, 0.6 °C and 36.4 °C.
On to `CN(C)c1ccc(Nc2c3ccc(NC(=O)CCN4CCCC4)cc3nc3cc(NC(=O)CCN4CCCC4)ccc23)cc1`, for which the ΔTm in the experiment on Nucleic Acid [1] amounted to 29.5 °C; in the experiment on Nucleic Acid [2], 8.8 °C.
With `COc1ccc2cc3[n+](cc2c1OC)CCc1cc2c(cc1-3)OCO2`, the ΔTm with Nucleic Acid [1] was determined as 9.7 °C; in the experiment on Nucleic Acid [2] it was 0.3 °C; in the experiment with Nucleic Acid [3] it was 23.8 °C.
The like results for `CCN(CC)Cc1cc2[nH]c3c4ccc(Cl)cc4ncc3c2cc1OC` were, in that order, 15 °C, 0.7 °C and 25.9 °C.
The like results for `COc1cc(Cc2nccc3cc(OC)c(OC)cc23)c(C(C)=O)cc1OC` were, in that order, 8 °C, 0.4 °C and 36.7 °C.
The like results for `CC(=O)N(C)c1ccc(Nc2cc(C)nc3ccc4nc[nH]c4c23)cc1` were, in that order, 15.8 °C, 0.4 °C and 31.1 °C.
On to `Cc1cc(N)c2ccccc2[n+]1CCCCCCCCCC[n+]1c(C)cc(N)c2ccccc21`, for which the ΔTm with Nucleic Acid [1] turned out to be 19.5 °C; in the experiment with Nucleic Acid [2], 1.3 °C; with Nucleic Acid [3], 40.7 °C.
With `CN(C)c1ccc(C=c2c3ccccc3n3c2cc(-c2ccc(Cl)cc2)[n+]3C)cc1`, the ΔTm stood at 1.3 °C in the experiment with Nucleic Acid [1], 0.3 °C in the experiment on Nucleic Acid [2] and 22.1 °C in the experiment on Nucleic Acid [3].
On the same counts, the results for `N=C(N)c1ccc(/C=C/c2ccc(C(=N)N)cc2O)cc1` are 17.3 °C, 3.2 °C and 26.3 °C.
The like results for `Cc1cc(NCCCCCCCNc2cc(C)nc3cc(N)ccc23)c2ccc(N)cc2n1` were, in that order, 11.8 °C, 0.6 °C and 38.7 °C.
The like results for `COc1cc2cc3c4cc(OC)c(OC)cc4cc[n+]3c(C)c2cc1OC.O=C([O-])CS(=O)(=O)O` were, in that order, 29.9 °C, 3.2 °C and 42.6 °C.
On to `O=C(Nc1ccc(C2=NCCCN2)cc1)Nc1ccc(C2=NCCCN2)cc1`, for which the shift in melting temperature (ΔTm) in the experiment on Nucleic Acid [1] was found to be 20.1 °C; with Nucleic Acid [2], 2.9 °C; in the experiment on Nucleic Acid [3], 21.5 °C.

As usually defined, the ΔTm is the change in melting temperature against a reference sample.
